# Data taken from patent publication US6548540B2, “Method of treating cancer using dithiocarbamate derivatives” (Charlotte-Mecklenburg Hospital Authority, priority 1998, dated 2003).
# Read-outs that look alike come from different tables or passages of the source.
# How the values were obtained:
# Melanoma M1585 = assay: MTT proliferation assay, M1585 melanoma; assay type: cell-based; conditions: Homo sapiens; for inhibition at 0.625 µM: disulfiram 0.625 μM; for inhibition at 0.625 µM / inhibition at 1.25 µM / inhibition at 2.5 µM / inhibition at 5 µM: read-out: Mean Percent Inhibition of Growth; for inhibition at 1.25 µM: disulfiram 1.25 μM; for inhibition at 2.5 µM: disulfiram 2.5 μM; for inhibition at 5 µM: disulfiram 5.0 μM
# Description: (§1) Human malignant cell lines were obtained from American Type Tissue Culture Collection (Rockville, Md.). Melanoma cells lines CRL 1585 and 1619 were cultured in RPMI 1640 (GIBCO-BRL, Life Technologies, Grand Island, N.Y.) with 10% FBS and passed with nonenzymatic Cell Dissociation Solution® (Sigma). The prostate adenocarcinoma cell line CRL 1435 (PC-3) was also cultured in RPMI 1640 with 10% FBS but passed with 0.05% trypsin and 0.53 mM EDTA. The squamous lung carcinoma NCI-H520 and the adenosquamous lung carcinoma NCI-H596 cell lines were grown in RPMI 1640 supplemented with 10% FBS, 10 mM HEPES and 1.0 mM sodium pyruvate and passed with trypsin/EDTA. The small cell lung carcinoma NCI-H82 was cultured as a suspension in RPMI 1640 with 10% FBS. All of the above were grown in a 37° C. humidified environment containing 5% CO2/air. The breast carcinoma cell line MDA-MB-453 was grown in a 37° C. humidified environment with free gas exchange with atmospheric air using Leibovitz's L-15 medium with 2 mM L-glutamine and 10% FBS and was passed with trypsin/EDTA.
# The effect of disulfiram (0.15 to 5.0 μM), diethyldithiocarbamate (DDC, 1.0 μM) or PDTC (0.625 to 5.0 μM) on proliferation of malignant cell lines was studied in cultures stimulated with 10% FBS. Cell numbers were quantitated 24-72 hours later. In some experiments disulfiram or PDTC were added immediately after cells were plated. In other experiments, cells were plated and allowed to grow for 24-72 hours before fresh media with disulfiram or PDTC was added, and cell numbers were assayed 24-72 hours later. Synergy was studied between disulfiram and N,N′-bis(2-chloroethyl-N-nitrosourea (carmustine or BCNU, 1.0 to 1,000 μM) or cisplatin (0.1 to 100 μg/ml) added to medium. The effect of metals on disulfiram was studied with 0.2 to 10 μM copper (provided as CuSO4), zinc (as ZnCl2), silver (as silver lactate) or gold (as HAuCl4.3H2O) ions added to growth medium. No pH changes occurred with addition of metal salts to culture medium. To provide a biologically relevant source of copper, in some experiments medium was supplemented with human ceruloplasmin at doses replicating low and high normal adult serum concentrations (250 and 500 μg/ml).
# Proliferation of cultured cells was quantitated using a previously reported calorimetric method based upon metabolic reduction of the soluble yellow tetrazolium dye 3-[4,5-dimethylthiazol]-2yl-2,5-diphenyl tetrazolium bromide (MTT) to its insoluble purple formazan by the action of mitochondrial succinyl dehydrogenase (See, e.g., S. J. Hirst, et al., “Quantifying proliferation of cultured human and rabbit airway smooth muscle in response to serum and platelet derived growth factor,” Am. J. Respir. Cell Mol. Biol. 7:574-581 (1992); R. Dashtaki, et al. R., supra; S. S. Brar, et al., “Requirement for reactive oxygen species in serum-induced and platelet-derived growth factor-induced growth of airway smooth muscle,” J. Biol. Chem. 274:20017-20026 (1999)). This assay empirically distinguishes between dead and living cells. For proliferation studies, cells were seeded into 24-well uncoated plastic plates (Costar) at 50,000 cells per well and cultured with respective media and mitogens. After 24-96 hours, medium was removed, cells were washed twice with 1 ml of sterile Dulbecco's modified phosphate buffered saline without Ca^2+ or Mg^2+ (DPBS), the medium was replaced with 1 ml/well fresh medium containing 100 μg/ml MTT, and plates were incubated an additional hour. MTT-containing medium was removed, 0.5 ml dimethylsulfoxide (DMSO) was added to each well, and the absorbance of the solubilized purple formazan dye was measured at 540 nm. A total of 4-6 wells were studied at each treatment condition. Preliminary studies were performed with 50-200 μg/ml MTT incubated for 15 minutes to 3 hours to determine the optimum concentration and incubation time at which the rate of conversion was linear and proportional to the number of cells present. […]
# p53 = assay: Immunoblot for p53; assay type: cell-based, human; conditions: cell lines studied; data not shown
# Description: Cells were lysed and proteins were isolated and quantitated by immunoassay as previously detailed using 2 μg/ml of primary rabbit polyclonal antibodies against human bcl-2, p53, p21^WAF1/CiP1, cyclin A and cyclin B1, and peroxidase-labeled donkey polyclonal anti-rabbit IgG. Cells were placed on ice, washed twice with cold DPBS, scraped into 0.5 ml boiling buffer (10% [vol/vol] glycerol and 2% [wt/vol] sodium dodecyl sulfate [SDS] in 83 mM Tris, pH 6.8) and sheared by four passages through a pipette. Aliquots were removed for protein determination, using the BCA protein assay (Pierce). After 10% β-mercaptoethanol and 0.05% bromophenol blue were added, lysates were boiled for 5 min and stored at −80° C. until immunoblotting was performed. Proteins in defrosted samples were separated by SDS-polyacrylamide gel electrophoresis on 12% polyacrylamide gels (15 μg protein/lane) and electrotransferred to 0.45 μm Hybond ECL nitrocellulose membranes (Amersham Life Sciences) using the wet transblot method in transfer buffer (0.025 M Tris, 0.192 M glycine, 2.6 mM SDS, and 20%[vol/vol] methanol; pH 8.8) at 100 volts for 1 hour. […] Immunoblots were rinsed again as above and detected via an enhanced chemiluminescence method (ECL Western blotting detection system, Amersham Life Science, Buckinghamshire, England). […]
# [1] = tested on: Small cell lung carcinoma NCI-H82; assay: MTT proliferation assay, small cell lung carcinoma; assay type: cell-based; conditions: Homo sapiens, treatment initially, after 48 hours, 10% FBS, read-out: Mean Percent Inhibition of Growth
# Description: as §1
# The effect of disulfiram (0.15 to 5.0 μM), diethyldithiocarbamate (DDC, 1.0 μM) or PDTC (0.625 to 5.0 μM) on proliferation of malignant cell lines was studied in cultures stimulated with 10% FBS. Cell numbers were quantitated 24-72 hours later. In some experiments disulfiram or PDTC were added immediately after cells were plated. In other experiments, cells were plated and allowed to grow for 24-72 hours before fresh media with disulfiram or PDTC was added, and cell numbers were assayed 24-72 hours later. […]
# Proliferation of cultured cells was quantitated using a previously reported calorimetric method based upon metabolic reduction of the soluble yellow tetrazolium dye 3-[4,5-dimethylthiazol]-2yl-2,5-diphenyl tetrazolium bromide (MTT) to its insoluble purple formazan by the action of mitochondrial succinyl dehydrogenase (See, e.g., S. J. Hirst, et al., “Quantifying proliferation of cultured human and rabbit airway smooth muscle in response to serum and platelet derived growth factor,” Am. J. Respir. Cell Mol. Biol. 7:574-581 (1992); R. Dashtaki, et al. R., supra; S. S. Brar, et al., “Requirement for reactive oxygen species in serum-induced and platelet-derived growth factor-induced growth of airway smooth muscle,” J. Biol. Chem. 274:20017-20026 (1999)). […] MTT-containing medium was removed, 0.5 ml dimethylsulfoxide (DMSO) was added to each well, and the absorbance of the solubilized purple formazan dye was measured at 540 nm. […]
# [2] = treatment after 24 hours of growth
# [3] = treatment initially, after 48 hours, 10% FBS
compound,measurement,setting,value
"CCN(CC)C(=S)SSC(=S)N(CC)CC [Disulfiram, tetraethylthiuram disulfide]",IC50,"Melanoma M1585; M1585 melanoma cells, read-out: 50% inhibitor concentration (IC50)",0.3 µM
same,inhibition at 0.625 µM,Melanoma M1585; [2],74 ± 4%
same,inhibition at 0.625 µM,Melanoma M1585; [3],100%
same,inhibition at 1.25 µM,Melanoma M1585; [2],49 ± 7%
same,inhibition at 1.25 µM,Melanoma M1585; [3],100%
same,inhibition at 2.5 µM,Melanoma M1585; [2],41 ± 2%
same,inhibition at 2.5 µM,Melanoma M1585; [3],100%
same,inhibition at 5 µM,Melanoma M1585; [2],37 ± 6%
same,inhibition at 5 µM,Melanoma M1585; [3],100%
same,expression of p53,p53,no consistent effect
same,inhibition at 0.625 µM,[1]; disulfiram 0.625 μM,68 ± 3%
same,inhibition at 1.25 µM,[1]; disulfiram 1.25 μM,76 ± 6%
same,inhibition at 2.5 µM,[1]; disulfiram 2.5 μM,76 ± 5%
same,inhibition at 5 µM,[1]; disulfiram 5.0 μM,72 ± 3%
